Read-outs that look alike come from different tables or passages of the source.
How the values were obtained:
Format in all cases: cell-based
a collection of yeasts = conditions: pH 3.5
Procedure: Cultures were grown in GPY-broth that contained per liter demineralised-water: 40 g glucose, 5 g peptone and 5 g yeast extract, the pH of the medium to 3.5 with 2 N HCl. Cultures were grown in screw-capped tubes for at least 48 hours at 25° C. Pichia membranifaciens MUCL 27794, CBS 8427 and CBS 5567, Rhodotorula glutinis CBS 2367, Rhodotorula mucilaginosa CBS 8054 and CBS 2401 and Zygosaccharomyces bailii MUCL 27812 were cultured in shake flasks
The inhibition tests were carried out in sterile 96-well microtiter plates. Increasing amounts (0 to 100 μL in 10 steps of 10 μL) of a sterile stock solution of each compound were transferred to sterile microtiter plates. Next 100 μL of filter sterilized double strength GPY-broth was added and the volume of each well was adjusted to 200 μL with sterile demineralized-water. Plates were inoculated with 2 μL of two days old cultures and incubated for 96 hours at 25° C. Growth was quantified by measuring the optical density at 595 nm in a microplate reader. All the experiments were carried out in duplicate.

Saccharomyces cerevisiae = assay: Screening of combinations of three ingredients, outgrowth in GPY-broth pH 3.5
Procedure: These combination tests were also carried out in sterile 96-well microtiter plates. Sterile GPY-broth was prepared with increasing quantities of inhibitors. For the first dimension the concentrations of the first inhibitor was presented in 8 equal concentration steps. For the second dimension a fixed ratio of two other inhibitors was chosen. This mixture was presented in 8 equal concentration steps resulting in 64 different media. […] of each medium was transferred to a panel of a sterile 96-well microtiter plate. Completed well plates were stored at 4° C. until further use. Plates were inoculated with 2 μL of two days old cultures and incubated for 96 hours at 25° C. Growth was quantified by measuring the optical density at 595 nm in a microplate reader and expressed as a percentage of the growth in the control, which contained no inhibitor. All the experiments were carried out in duplicate.

[1] = test system: Schizosaccharomyces pombe; assay: Screening of combinations of two inhibitors, outgrowth in GPY-broth pH 3.5
Procedure: These combination tests were carried out in sterile 96-well microtiter plates. Sterile GPY-broth was prepared with increasing quantities of two different inhibitors. The concentrations of each inhibitor were presented in 8 equal concentration steps that ranged from 0 to 1-2 times the MIC value of a particular yeast for a particular inhibitor resulting in 64 different media. […] of each medium was transferred to a panel of a sterile 96-well microtiter plate. Completed well plates were stored at 4° C. until further use.
Plates were inoculated with 2 μL of two days old cultures and incubated for 96 hours at 25° C. Growth was quantified by measuring the optical density at 595 nm in a microplate reader and expressed as a percentage of the growth in the control, which contained no inhibitor. All the experiments were carried out in duplicate.

O=C(O)C=Cc1ccccc1 [Cinnamic acid, cinnamic acid]
Comparison of inhibitory potency (in words) (a collection of yeasts; MIC values of a number of yeasts): more effective than sorbic acid
MICavg (Average Minimal Inhibitory Concentration) (a collection of yeasts; collection of yeasts): 0.009 ± 0.007 % w/v
MICmax (Maximum MIC) (a collection of yeasts; collection of yeasts): 0.03 % w/v
MICmax/MICavg (a collection of yeasts; collection of yeasts): 3.0
Outgrowth (% of outgrowth at zero concentration inhibitor) (Saccharomyces cerevisiae; MCE 8060-ε-polylysine mixture (ratio 18.9) 0, cinnamic acid 0.002 (% w/v)): 76%
Outgrowth (% of outgrowth at zero concentration inhibitor) (Saccharomyces cerevisiae; MCE 8060-ε-polylysine mixture (ratio 18.9) 0, cinnamic acid 0.004 (% w/v)): 44%
Outgrowth (% of outgrowth at zero concentration inhibitor) (Saccharomyces cerevisiae; MCE 8060-ε-polylysine mixture (ratio 18.9) 0, cinnamic acid 0.006 (% w/v)): 1%
Outgrowth (% of outgrowth at zero concentration inhibitor) (Saccharomyces cerevisiae; MCE 8060-ε-polylysine mixture (ratio 18.9) 0, cinnamic acid 0.008 (% w/v)): 0%
Outgrowth (% of outgrowth at zero concentration inhibitor) (Saccharomyces cerevisiae; MCE 8060-ε-polylysine mixture (ratio 18.9) 0, cinnamic acid 0.01 (% w/v)): 2%
Outgrowth (% of outgrowth at zero concentration inhibitor) (Saccharomyces cerevisiae; MCE 8060-ε-polylysine mixture (ratio 18.9) 0, cinnamic acid 0.012 (% w/v)): 1%
Outgrowth (% of outgrowth at zero concentration inhibitor) (Saccharomyces cerevisiae; MCE 8060-ε-polylysine mixture (ratio 18.9) 0, cinnamic acid 0.014 (% w/v)): 0%

C/C=C/C=C/C(=O)[O-].[K+] [Potassium sorbate, potassium sorbate]
Outgrowth (% of outgrowth at zero concentration inhibitor) ([1]; ε-polylysine 0, potassium sorbate 0.007 (% w/v)): 81%
Outgrowth (% of outgrowth at zero concentration inhibitor) ([1]; ε-polylysine 0, potassium sorbate 0.014 (% w/v)): 69%
Outgrowth (% of outgrowth at zero concentration inhibitor) ([1]; ε-polylysine 0, potassium sorbate 0.021 (% w/v)): 56%
Outgrowth (% of outgrowth at zero concentration inhibitor) ([1]; ε-polylysine 0, potassium sorbate 0.028 (% w/v)): 44%
Outgrowth (% of outgrowth at zero concentration inhibitor) ([1]; ε-polylysine 0, potassium sorbate 0.035 (% w/v)): 30%
Outgrowth (% of outgrowth at zero concentration inhibitor) ([1]; ε-polylysine 0, potassium sorbate 0.042 (% w/v)): 20%
Outgrowth (% of outgrowth at zero concentration inhibitor) ([1]; ε-polylysine 0, potassium sorbate 0.049 (% w/v)): 7%

C/C=C/C=C/C(=O)O [Sorbic acid]
MICavg (Average Minimal Inhibitory Concentration) (a collection of yeasts): 0.030 ± 0.020 % w/v
MICmax (Maximum MIC) (a collection of yeasts): 0.07 % w/v
MICmax/MICavg (a collection of yeasts): 2.5

Reference: patent US20090074926A1, “Preservation of acidic beverages” (PURAC BIOCHEM B.V., priority 2007, published 2009)
